Experimental findings from US12702307B2, “Non-invasive stress imaging methods of diagnosing peripheral arterial disease via dynamic pet” (Jubilant DraxImage inc., priority 2021, dated 2026) are described below.

For data set [1], the system named is occluded tissue (lower extremity). Put plainly: Dynamic Rb-82 PET, tracer flux K1 in lower extremity, animal study. Format: in vivo, porcine pigs. The note with it: occluded tissue in comparison to non-occluded tissue; 518±37 MBq Rb-82. On the procedure:
CT scan was performed on the subject for standard attenuation correction, and multi-energy low dose contrast CT imaging was performed to define the lower extremity vasculature and attenuation correction was performed using virtual non-contrast images; 518±37 MBq Rb-82 was administered to the subject using automated generation and infusion system; single bed PET acquisition of the heart for about 1-10 minutes, was performed; single bed PET acquisition of the leg for about 1-10 minutes was performed; single bed centered PET acquisition at abdominal aorta of the subject for about 1-3 minutes was performed; continuous bed motion PET scan of the subject between abdominal aorta and legs was performed; tracer flux (K1) into the tissue or region of interest is calculated as volume per unit time per unit volume of tissue. […] It was validated by injecting microspheres over 30 seconds during the PET imaging at either rest or stress conditions for each animal and blood flow was measured in both gastrocnemius and soleus muscles. FIG. 4 represents the sample animal K1 parametric image with AA as the input function. FIG. 6 represents the muscle volumes in animal studies.

In data set [2] the test system is calf muscles, hindlimb ischemia (HLI). Put plainly: Rb-82 PET/CT of calf muscles in rabbit hindlimb ischemia at rest and cuff-induced hyperemia. The note with it: for SMP SUV: cuff-induced hyperemia (CIH); for Mean Rb-82 SUV: rest, 1.5 mCi. It counts as in vivo, rabbits. On the procedure: Methods: Hindlimb ischemia (HLI) was created in rabbits (n=8) by right femoral ligations and Rb-82 PET/CT imaging performed on digital PET scanner (Vision600, Siemens) at either 2 or 4 weeks post-ligation. Rabbits were injected with Rb-82 (1.5 mCi) with constant activity infusion over 30 seconds at rest and 30 seconds following hyperemia induced by 3 minutes cuff occlusion of thighs bilaterally. PET images were acquired with shuttling scanner from heart to feet using 8 passes over 7 minutes. Summed images were created excluding the first 90 seconds post injection. Calf muscles were segmented based on CT images. Mean Rb-82 standardized uptake values (SUVs) were calculated for calf muscles—gastrocnemius (GC), plantaris (PLA), soleus (SOL), tibialis anterior (TA), extensor digitorum longus (EDL), peroneus (PER)—for both ischemic (I) and non-ischemic (NI) limbs. CT angiography was performed, and tissues analyzed for fiber type and capillary density.

The test system of data set [3] is occluded tissue / low limb. Put plainly: Dynamic Rb-82 PET, tracer flux K1 in lower extremity, human study. Format: in vivo. The note with it: for average K1 value: diabetic subject, 3D region of interest on the low limb, parametric imaging. The protocol: CT scan was performed on the subject for standard attenuation correction, multi-energy low dose contrast CT imaging was performed to define lower extremity vasculature and attenuation correction was performed using virtual non-contrast images; 518±37 MBq Rb-82 is administered to the subject using automated generation and infusion system agent; single bed PET acquisition of the heart for about 2-7 minutes is performed; single bed centered PET acquisition at abdominal aorta of the subject for about 1-3 minutes is performed; continuous bed motion PET scan of the subject between abdominal aorta and legs is performed; input function was calculated from abdominal artery; Tracer flux (K1) into the tissue or region of interest is calculated as volume per unit time per unit volume of tissue. […] FIG. 5 represents the image acquisition protocol during human study. FIG. 7 represents the muscle volumes in human studies.

The next data set has as its system calf muscles. Description: Rb PET/CT calf muscle perfusion at rest and reactive hyperemia in controls and PAD patients. It counts as in vivo, human. The protocol:
Methods: Rb PET/CT imaging (Vision600, Siemens) was performed in healthy controls (n=6) and PAD patients (n=6). Rb (20-30 mCi) was delivered using a constant activity infusion over […], with PET images acquired by shuttling scanner from either heart (Protocol 1) or abdomen (Protocol 2) to feet using 8-11 passes over 7 minutes. Abdominal protocol was repeated 30 seconds after RH induced by 5 minutes bilateral thigh cuff occlusion. Mean Rb standardized uptake values (SUV), excluding the input function, were determined for calf muscles segmented in both legs using hybrid CT images including: gastrocnemius (GC), soleus (SOL), tibialis anterior (TA), extensor digitorum longus (EDL), and peroneus (PER) (FIG. 10A).

Rb-82 chloride: the “Average K1 (tracer flux)” value is “less than 0.05 ml/min/cm^3” in data set [1] and “less than 0.05 ml/min/cm^3” in data set [3] (occluded tissue in comparison to non-occluded tissue, 518±37 MBq Rb-82). In addition, the “SMP SUV” value worked out at 1.02±0.32 in data set [2] (ischemic (I) limb) and 1.14±0.34 in data set [2] (non-ischemic (NI) limb). The “Mean Rb-82 SUV” value turned out to be 0.55±0.18 in data set [2] (ischemic (I) limb across calf muscles) and 0.51±0.16 in data set [2] (non-ischemic (NI) limb across calf muscles). Moreover, the “average K1 value” in data set [3] worked out at 0.032. Besides, the “Mean Rb SUV” value was 0.96±0.58 in the data set with calf muscles (reactive hyperemia (RH), PAD patients, gastrocnemius (GC)); 1.08±0.76 with calf muscles (reactive hyperemia (RH), PAD patients, soleus (SOL)); 0.38±0.18 with calf muscles (reactive hyperemia (RH), controls, gastrocnemius (GC)); 0.34±0.14 with calf muscles (reactive hyperemia (RH), controls, soleus (SOL)); 0.50±0.11 with calf muscles (rest, PAD subjects, gastrocnemius (GC)); 0.66±0.20 with calf muscles (rest, PAD subjects, soleus (SOL)). Moreover, the “Mean Rb SUV” value with calf muscles (rest, controls, gastrocnemius (GC)) turned out to be 0.44±0.11; with calf muscles (rest, controls, soleus (SOL)), 0.52±0.12.
As to `[15OH2]` [^15O-water], the “average K1 value” in data set [3] is given as 0.039.
